Assay [1] relates to HCT116 MTAP null cells. Description: HCT116 MTAP null cell line proliferation / cell viability (CellTiter-Glo, 6 days). Format: cell-based. As to conditions: 144 h; HCT116 MTAP null cells, 6 days treatment, CellTiter-Glo cell viability; read-out: HCT-116 MTAP null IC50. The gist of the method: (§1)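 Isogenic HCT116 pair (parental and MTAP-knockout) in RPMI 1640 + 10% FBS, treated 6 days with 8–9-point 1:3 dilutions from 1 or 10 μM top, or 22-point 1:2 dilutions from 10 or 50 μM top. Viability by CellTiter-Glo luminescence; IC50 from 4-parameter logistic fit or sigmoidal fit with Hill slope fixed at −1.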

The test system of assay [2] is HCT116 WT cells. Description: HCT116 WT (parent) cell line proliferation / cell viability (CellTiter-Glo, 6 days). Format: cell-based. The settings on record: Homo sapiens, HCT-116, 144 h, 6 days treatment. In a few lines:
as §1
On the technique in general: ATP-based viability assays read luminescence as a measure of living cells.

Molecules are shown by their SMILES. pIC50: −log10 of the molar value.

By pIC50 is commonly meant −log10 of the IC50, conventionally taken in molar units. With `[2H]C([2H])([2H])N(C(=O)c1cc2c3c(c(N)nc2cn1)COC3)[C@@H]1COc2cc(C(F)(F)F)ccc21` (single isomer, unassigned) [Example 337], the negative logarithm of the IC50 (pIC50) was 7.39 in assay [1] and 5.68 in assay [2].
`[2H]C([2H])([2H])N(C(=O)c1cc2c3c(c(N)nc2cn1)COC3)[C@H]1COc2cc(C(F)(F)F)ccc21` (single isomer, unassigned) [Example 338]: the pIC50 is 5.33 in assay [1] and 4.43 in assay [2].
Regarding `CN(C(=O)c1cc2c3c(c(N)nc2cn1)COC3)[C@@H]1COc2cc(S(C)(=O)=O)ccc21` (single isomer, unassigned) [Example 339], the pIC50 in assay [1] is 6.63; in assay [2], 5.06.
In the case of `CN(C(=O)c1cc2c3c(c(N)nc2cn1)COC3)[C@H]1COc2cc(S(C)(=O)=O)ccc21` (single isomer, unassigned) [Example 340], the values for the pIC50 in assay [1] and in assay [2] were 5.14 and 4.30, respectively.
On to `CN(C(=O)c1cc2c3c(c(N)nc2cn1)COC3)[C@@H]1CCc2cc(OC(F)(F)F)ccc21` (single isomer, unassigned) [Example 341], for which the negative logarithm of the IC50 (pIC50) is 6.74 in assay [1] and 5.20 in assay [2].
Consider `CN(C(=O)c1cc2c3c(c(N)nc2cn1)COC3)[C@H]1CCc2cc(OC(F)(F)F)ccc21` (single isomer, unassigned) [Example 342], for which the pIC50 is 5.35 in assay [1] and 4.55 in assay [2].
As to `CN(C(=O)c1cc2c3c(c(N)nc2cn1)COC3)[C@@H]1COc2cc(S(F)(F)(F)(F)F)ccc21` (single isomer, unassigned) [Example 343], the negative logarithm of the IC50 (pIC50) was 7.72 in assay [1] and 6.24 in assay [2].
`CN(C(=O)c1cc2c3c(c(N)nc2cn1)COC3)[C@H]1COc2cc(S(F)(F)(F)(F)F)ccc21` (single isomer, unassigned) [Example 344]: the pIC50 in assay [1] is 5.97; in assay [2] it was 4.71.
With `CN(C(=O)c1cc2c3c(c(N)nc2cn1)COC3)[C@@H]1COc2cc(Br)ccc21` (single isomer, unassigned) [Example 345], the pIC50 was 7.04 in assay [1] and 5.26 in assay [2].
On to `CN(C(=O)c1cc2c3c(c(N)nc2cn1)COC3)[C@H]1COc2cc(Br)ccc21` (single isomer, unassigned) [Example 346], for which the pIC50 was 5.22 in assay [1] and 4.43 in assay [2].
In the case of `CN(C(=O)c1cc2c3c(c(N)nc2cc1F)COC3)[C@@H]1COc2cc(Cl)ccc21` (single isomer, unassigned) [Example 347], the results for the pIC50 in assay [1] and in assay [2] were 7.07 and 5.49, respectively.
In the case of `CN(C(=O)c1cc2c3c(c(N)nc2cc1F)COC3)[C@H]1COc2cc(Cl)ccc21` (single isomer, unassigned) [Example 348], the pIC50 in assay [1] is 5.72; in assay [2], 4.63.
As to `CN(C(=O)c1cc2c3c(c(N)nc2cc1F)COC3)[C@@H]1CCc2nc(C(F)(F)F)ccc21` (single isomer, unassigned) [Example 349], the figures for the negative logarithm of the IC50 (pIC50) in assay [1] and in assay [2] were 7.41 and 5.65, respectively.
As to `CN(C(=O)c1cc2c3c(c(N)nc2cc1F)COC3)[C@H]1CCc2nc(C(F)(F)F)ccc21` (single isomer, unassigned) [Example 350], the negative logarithm of the IC50 (pIC50) in assay [1] is 5.50; in assay [2], 4.30.
As for `CN(C(=O)c1cc2c3c(c(N)nc2cc1F)COC3)[C@@H]1COc2nc(C(F)(F)F)ccc21` (single isomer, unassigned) [Example 351], the figures for the negative-log IC50 (pIC50) in assay [1] and in assay [2] were 7.08 and 5.55, respectively.
Regarding `CN(C(=O)c1cc2c3c(c(N)nc2cc1F)COC3)[C@H]1COc2nc(C(F)(F)F)ccc21` (single isomer, unassigned) [Example 352], the figures for the pIC50 in assay [1] and in assay [2] were 5.49 and 4.30, respectively.
`CN(C(=O)c1cc2c3c(c(N)nc2cc1F)COC3)[C@@H]1COc2cc(S(C)(=O)=O)ccc21` (single isomer, unassigned) [Example 353]: the negative logarithm of the IC50 (pIC50) was 7.49 in assay [1] and 5.86 in assay [2].
`CN(C(=O)c1cc2c3c(c(N)nc2cc1F)COC3)[C@H]1COc2cc(S(C)(=O)=O)ccc21` (single isomer, unassigned) [Example 354]: the pIC50 in assay [1] is 5.41; in assay [2] it was 4.30.
On to `CN(C(=O)c1cc2c3c(c(N)nc2cc1F)COC3)[C@@H]1COc2cc(C(F)(F)F)cc(F)c21` (single isomer, unassigned) [Example 355], for which the pIC50 in assay [1] is 7.59; in assay [2] it was 5.93.
Turning to `CN(C(=O)c1cc2c3c(c(N)nc2cc1F)COC3)[C@H]1COc2cc(C(F)(F)F)cc(F)c21` (single isomer, unassigned) [Example 356], the pIC50 was 5.98 in assay [1] and 4.95 in assay [2].
Take `CN(C(=O)c1cc2c3c(c(N)nc2cc1F)COC3)[C@@H]1COc2cc(S(F)(F)(F)(F)F)ccc21` (single isomer, unassigned) [Example 357]: the pIC50 was 7.92 in assay [1] and 6.68 in assay [2].
For `CN(C(=O)c1cc2c3c(c(N)nc2cc1F)COC3)[C@H]1COc2cc(S(F)(F)(F)(F)F)ccc21` (single isomer, unassigned) [Example 358], in that order: 5.92 and 5.05.
For `C[C@H]1OCc2c1c(N)nc1cc(F)c(C(=O)N(C)[C@@H]3CCc4nc(C(F)(F)F)ccc43)cc21` (single isomer, unassigned) [Example 359], in that order: 7.77 and 5.91.
Turning to `C[C@H]1OCc2c1c(N)nc1cc(F)c(C(=O)N(C)[C@H]3CCc4nc(C(F)(F)F)ccc43)cc21` (single isomer, unassigned) [Example 360], the results for the pIC50 in assay [1] and in assay [2] were 6.09 and 4.37, respectively.
For `CN(C(=O)c1cc2c3c(c(N)nc2cc1Cl)COC3)[C@@H]1COc2cc(C(F)(F)F)ncc21` (single isomer, unassigned) [Example 361], in that order: 7.54 and 5.87.
Turning to `CN(C(=O)c1cc2c3c(c(N)nc2cc1Cl)COC3)[C@H]1COc2cc(C(F)(F)F)ncc21` (single isomer, unassigned) [Example 362], the negative logarithm of the IC50 (pIC50) in assay [1] was 6.13; in assay [2] it was 4.45.
For `CN(C(=O)c1ccc2nc(N)c3cnn(C)c3c2c1)[C@@H]1CCc2nc(C(F)(F)F)ccc21` (single isomer, unassigned) [Example 363], in that order: 7.77 and 5.60.
As for `CN(C(=O)c1ccc2nc(N)c3cnn(C)c3c2c1)[C@H]1CCc2nc(C(F)(F)F)ccc21` (single isomer, unassigned) [Example 364], the negative logarithm of the IC50 (pIC50) in assay [1] was 5.54; in assay [2] it was 4.46.
For `CCN(C(=O)c1ccc2nc(N)c3cnn(C)c3c2c1)[C@@H]1COc2cc(C(F)(F)F)ccc21` (single isomer, unassigned) [Example 365], in that order: 8.30 and 6.67.
For `CN(C(=O)c1ccc2nc(N)c3cnn(C)c3c2c1)[C@@H]1COc2cc(S(F)(F)(F)(F)F)ccc21` (single isomer, unassigned) [Example 366], in that order: 8.22 and 6.81.
Regarding `CN(C(=O)c1ccc2nc(N)c3cnn(C)c3c2c1)[C@H]1COc2cc(S(F)(F)(F)(F)F)ccc21` (single isomer, unassigned) [Example 367], the results for the negative-log IC50 (pIC50) in assay [1] and in assay [2] were 6.31 and 5.28, respectively.
With `CN(C(=O)c1ccc2nc(N)c3cnn(C)c3c2c1)[C@@H]1CCc2cc(Br)ccc21` (single isomer, unassigned) [Example 368], the pIC50 in assay [1] is 7.43; in assay [2], 5.60.
With `CN(C(=O)c1ccc2nc(N)c3cnn(C)c3c2c1)[C@H]1CCc2cc(Br)ccc21` (single isomer, unassigned) [Example 369], the pIC50 in assay [1] is 6.28; in assay [2] it was 5.38.
Turning to `CN(C(=O)c1ccc2nc(N)c3cnn(C)c3c2c1)[C@@H]1CCc2nc(Br)ccc21` (single isomer, unassigned) [Example 370], the results for the negative logarithm of the IC50 (pIC50) in assay [1] and in assay [2] were 7.54 and 5.74, respectively.
As to `CN(C(=O)c1cc2c(cn1)nc(N)c1cnn(C)c12)[C@@H]1CCc2nc(C(F)(F)F)ccc21` (single isomer, unassigned) [Example 371], the pIC50 in assay [1] is 7.57; in assay [2], 5.79.
As for `CCN(C(=O)c1cc2c(cn1)nc(N)c1cnn(C)c12)[C@@H]1COc2cc(C(F)(F)F)ccc21` (single isomer, unassigned) [Example 372], the pIC50 in assay [1] is 8.00; in assay [2], 6.94.
Turning to `CN(C(=O)c1cc2c(cc1F)nc(N)c1cnn(C)c12)[C@@H]1COc2cc(C#N)ccc21` (single isomer, unassigned) [Example 373], the pIC50 in assay [1] is 8.40; in assay [2], 6.63.
Consider `CN(C(=O)c1cc2c(cc1F)nc(N)c1cnn(C)c12)[C@H]1COc2cc(C#N)ccc21` (single isomer, unassigned) [Example 374], for which the negative logarithm of the IC50 (pIC50) in assay [1] was 6.57; in assay [2] it was 4.65.
As to `CN(C(=O)c1cc2c(cc1F)nc(N)c1cnn(C)c12)[C@@H]1CCc2nc(C(F)(F)F)ccc21` (single isomer, unassigned) [Example 375], the pIC50 in assay [1] is 8.05; in assay [2] it was 6.25.
With `CN(C(=O)c1cc2c(cc1F)nc(N)c1cnn(C)c12)[C@H]1CCc2nc(C(F)(F)F)ccc21` (single isomer, unassigned) [Example 376], the pIC50 in assay [1] is 6.05; in assay [2] it was 4.89.
For `CN(C(=O)c1cc2c(cc1F)nc(N)c1cnn(C)c12)[C@@H]1COc2nc(C(F)(F)F)ccc21` (single isomer, unassigned) [Example 377], in that order: 8.00 and 6.23.
Turning to `CN(C(=O)c1cc2c(cc1F)nc(N)c1cnn(C)c12)[C@@H]1COc2cc(S(C)(=O)=O)ccc21` (single isomer, unassigned) [Example 378], the negative-log IC50 (pIC50) in assay [1] was 8.00; in assay [2], 6.62.

The record behind these values is US20240124442A1, “TRICYCLIC-AMIDO-BICYCLIC PRMT5 INHIBITORS” (AMGEN INC., priority 2021, published 2024).
